Assay results: ChEMBL document CHEMBL6153040, “Discovery of the salicylaldehyde-based compound DDO-02267 as a lysine-targeting covalent inhibitor of ALKBH5” (Eur J Med Chem, 2025)
Calls of active or inactive are those of the source. No cut-off for these calls is given here.

What was measured:
[1] = system: MOLM-13; experiment: Induction of cell cycle arrest in human MOLM-13 cells assessed as accumulation of cells at G2/M phase at 80 uM incubated for 72 hrs by flow cytometry analysis (reference value: 17.53 %); assay type: functional
[2] = system: MOLM-13; experiment: Induction of apoptosis in human MOLM-13 cells assessed as late apoptotic cells at 40 uM incubated for 72 hrs by Annexin V FITC/PI staining based flow cytometry analysis (reference value: 4.28 %); assay type: functional
[3] = biological target: T1, RNA demethylase ALKBH5 (Homo sapiens, UniProt Q6P6C2); experiment: Binding affinity to ALKBH5 (66 to 292 residues) (unknown origin) extracted from Escherichia coli BL21 (DE3) cells assessed as dissociation constant incubated for 1.5 hrs by MST analysis
Target sequence in this assay (Q6P6C2 whole entry, the tested form may be a part): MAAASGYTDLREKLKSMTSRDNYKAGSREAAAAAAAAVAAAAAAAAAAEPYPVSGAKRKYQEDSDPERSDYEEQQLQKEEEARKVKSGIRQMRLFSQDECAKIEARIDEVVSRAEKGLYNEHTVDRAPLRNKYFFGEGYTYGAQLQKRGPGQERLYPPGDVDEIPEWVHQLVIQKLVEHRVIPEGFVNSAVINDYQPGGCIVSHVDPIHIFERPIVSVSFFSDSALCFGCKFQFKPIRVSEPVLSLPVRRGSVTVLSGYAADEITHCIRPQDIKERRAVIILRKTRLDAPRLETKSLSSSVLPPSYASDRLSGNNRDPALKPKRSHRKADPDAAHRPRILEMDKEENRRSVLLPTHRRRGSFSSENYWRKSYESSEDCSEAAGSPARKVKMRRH

[4] = biological target: T1, RNA demethylase ALKBH5; experiment: Inhibition of ALKBH5 (66 to 292 residues) (unknown origin) extracted from Escherichia coli BL21 (DE3) cells using m6A ssDNA as substrate measured after 40 mins by fluorescence polarization assay
Target sequence in this assay (Q6P6C2 whole entry, the tested form may be a part): as above

[5] = biological target: T2, Alpha-ketoglutarate-dependent dioxygenase alkB homolog 3 (Homo sapiens) (UniProt Q96Q83); experiment: Induction of thermal stabilization of ALKBH3 (unknown origin) assessed as change in melting temperature by thermal shift assay
T2 sequence (whole entry): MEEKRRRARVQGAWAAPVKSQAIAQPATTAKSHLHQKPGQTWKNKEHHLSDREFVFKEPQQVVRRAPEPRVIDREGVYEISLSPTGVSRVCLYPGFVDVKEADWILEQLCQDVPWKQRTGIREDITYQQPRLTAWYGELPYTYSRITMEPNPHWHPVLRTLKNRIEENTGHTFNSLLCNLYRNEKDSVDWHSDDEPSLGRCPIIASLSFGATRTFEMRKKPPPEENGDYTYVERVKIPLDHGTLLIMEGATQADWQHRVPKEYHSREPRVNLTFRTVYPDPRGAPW

[6] = biological target: T1, RNA demethylase ALKBH5; experiment: Time-dependent inhibition of ALKBH5 (66 to 292 residues) (unknown origin) demethylation activity extracted from Escherichia coli BL21 (DE3) cells using m6A ssDNA as substrate at 1 to 10 uM by TBE-PAGE based restriction enzyme digestion assay; settings: dose 1-10 µM, time 0.5-2 hrs
Target sequence in this assay (Q6P6C2 2-394 limits assumed): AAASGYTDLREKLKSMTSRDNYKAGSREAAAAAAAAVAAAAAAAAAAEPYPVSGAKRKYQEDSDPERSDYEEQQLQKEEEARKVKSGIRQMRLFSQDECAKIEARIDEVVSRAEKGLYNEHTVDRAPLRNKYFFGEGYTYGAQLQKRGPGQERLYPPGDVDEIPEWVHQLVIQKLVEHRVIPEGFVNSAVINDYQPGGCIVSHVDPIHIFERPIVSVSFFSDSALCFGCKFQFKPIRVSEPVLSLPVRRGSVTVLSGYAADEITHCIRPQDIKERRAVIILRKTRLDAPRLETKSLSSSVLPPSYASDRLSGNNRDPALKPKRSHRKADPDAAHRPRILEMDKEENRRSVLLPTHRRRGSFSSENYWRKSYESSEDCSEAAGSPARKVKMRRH

[7] = system: RNA demethylase ALKBH5 (Homo sapiens), Q6P6C2 [K132E]; experiment: Inhibition of ALKBH5 K132E mutant (66 to 292 residues) (unknown origin) extracted from Escherichia coli BL21 (DE3) cells using m6A ssDNA as substrate at 0.5 to 100 uM incubated for 2 hrs by restriction enzyme digestion assay; settings: dose 0.5-100 µM
RNA demethylase ALKBH5 (Homo sapiens), Q6P6C2 [K132E], sequence (Q6P6C2 whole entry K132E, the tested form may be a part): as the sequence (Q6P6C2 whole entry, the tested form may be a part) above, with K132E counted along it

[8] = system: MOLM-13; experiment: Induction of apoptosis in human MOLM-13 cells assessed as necrotic cells at 40 uM incubated for 72 hrs by Annexin V FITC/PI staining based flow cytometry analysis (reference value: 1.75 %); assay type: functional
[9] = system: MOLM-13; experiment: Induction of apoptosis in human MOLM-13 cells assessed as early apoptotic cells at 40 uM incubated for 72 hrs by Annexin V FITC/PI staining based flow cytometry analysis (reference value: 4.32%); assay type: functional
[10] = biological target: T1, RNA demethylase ALKBH5; experiment: Induction of thermal stabilization of ALKBH5 in human MOLM-13 cells at 20 uM incubated for 30 min and measured after 3 mins incubation under 45 to 65 degreeC by […] assay; assay type: cell-based; settings: time 33.0 min
Target sequence in this assay (Q6P6C2 2-394 limits assumed): as the sequence (Q6P6C2 2-394 limits assumed) above

[11] = biological target: T1, RNA demethylase ALKBH5; experiment: Inhibition of ALKBH5 (66 to 292 residues) (unknown origin) extracted from Escherichia coli BL21 (DE3) cells using m6A ssDNA as substrate measured immediately by fluorescence polarization assay
Target sequence in this assay (Q6P6C2 whole entry, the tested form may be a part): as the sequence (Q6P6C2 whole entry, the tested form may be a part) above

[12] = biological target: T1, RNA demethylase ALKBH5; experiment: Covalent binding affinity to ALKBH5 (66 to 292 residues) (unknown origin) extracted from Escherichia coli BL21 (DE3) cells at Lys132 residue by HPLC-MS/MS analysis
Target sequence in this assay (Q6P6C2 2-394 limits assumed): as the sequence (Q6P6C2 2-394 limits assumed) above

[13] = biological target: T1, RNA demethylase ALKBH5; experiment: Induction of thermal stabilization of wild type ALKBH5 (66 to 292 residues) (unknown origin) extracted from Escherichia coli BL21 (DE3) cells assessed as melting temperature by thermal shift assay (reference value: 47.30 degreeC)
Target sequence in this assay (Q6P6C2 2-394 limits assumed): as above

[14] = system: MOLM-13; experiment: Induction of cell cycle arrest in human MOLM-13 cells assessed as accumulation of cells at G0/G1 phase at 80 uM incubated for 72 hrs by flow cytometry analysis (reference value: 65.53 %); assay type: functional
[15] = biological target: T1, RNA demethylase ALKBH5; experiment: Inhibition of ALKBH5 in human MV4-11 cells assessed as increase in m6A methylation levels by dot blot assay; assay type: cell-based
Target sequence in this assay (Q6P6C2 2-394 limits assumed): as above

[16] = Selectivity ratio of IC50 for ALKBH3 (unknown origin) to IC50 for ALKBH5 (66 to 292 residues) (unknown origin) extracted from Escherichia coli BL21 (DE3) cells by restriction enzyme digestion assay
[17] = biological target: T1, RNA demethylase ALKBH5; experiment: Inhibition of ALKBH5 (66 to 292 residues) (unknown origin) extracted from Escherichia coli BL21 (DE3) cells using m6A ssDNA as substrate measured after 180 mins by fluorescence polarization assay
Target sequence in this assay (Q6P6C2 whole entry, the tested form may be a part): as the sequence (Q6P6C2 whole entry, the tested form may be a part) above

[18] = system: MOLM-13; experiment: Induction of cell cycle arrest in human MOLM-13 cells assessed as accumulation of cells at G2/M phase at 40 uM incubated for 72 hrs by flow cytometry analysis (reference value: 17.53 %); assay type: functional
[19] = biological target: T1, RNA demethylase ALKBH5; experiment: Inhibition of ALKBH5 in human MV4-11 cells assessed as increase in m6A methylation levels by m6A RNA Methylation Quantification Kit based colorimetric analysis; assay type: cell-based; settings: dose 10-80 µM
Target sequence in this assay (Q6P6C2 2-394 limits assumed): as the sequence (Q6P6C2 2-394 limits assumed) above

[20] = biological target: T1, RNA demethylase ALKBH5; experiment: Binding affinity to ALKBH5 (66 to 292 residues) (unknown origin) extracted from Escherichia coli BL21 (DE3) cells assessed as dissociation constant incubated for 3 hrs by MST analysis
Target sequence in this assay (Q6P6C2 whole entry, the tested form may be a part): as the sequence (Q6P6C2 whole entry, the tested form may be a part) above

[21] = biological target: T3, Alpha-ketoglutarate-dependent dioxygenase alkB homolog 3 (Homo sapiens, UniProt Q96Q83); experiment: Inhibition of ALKBH3 (unknown origin) by fluorescence polarization assay
T3 sequence (Q96Q83 whole entry): T2 sequence (whole entry)

[22] = system: RNA demethylase ALKBH5 (Homo sapiens), Q6P6C2 [K132E]; experiment: Induction of thermal stabilization of ALKBH5 K132E mutant (66 to 292 residues) (unknown origin) extracted from Escherichia coli BL21 (DE3) cells assessed as change in melting temperature by thermal shift assay
[23] = system: MOLM-13; experiment: Induction of apoptosis in human MOLM-13 cells assessed as necrotic cells at 80 uM incubated for 72 hrs by Annexin V FITC/PI staining based flow cytometry analysis (reference value: 1.75 %); assay type: functional
[24] = biological target: T1, RNA demethylase ALKBH5; experiment: Inhibition of ALKBH5 (66 to 292 residues) (unknown origin) extracted from Escherichia coli BL21 (DE3) cells using m6A ssDNA as substrate at 1.25 to 10 uM incubated for 2 hrs in presence of 2-OG by TBE-PAGE based restriction enzyme digestion assay; settings: dose 1.25-10 µM
[25] = biological target: Alpha-ketoglutarate-dependent dioxygenase FTO (Homo sapiens, UniProt Q9C0B1); experiment: Induction of thermal stabilization of FTO (32 to 505 residues) (unknown origin) extracted from Escherichia coli BL21 (DE3) cells assessed as change in melting temperature by thermal shift assay
Alpha-ketoglutarate-dependent dioxygenase FTO, sequence (Q9C0B1 whole entry, looked up, the tested form may be a part): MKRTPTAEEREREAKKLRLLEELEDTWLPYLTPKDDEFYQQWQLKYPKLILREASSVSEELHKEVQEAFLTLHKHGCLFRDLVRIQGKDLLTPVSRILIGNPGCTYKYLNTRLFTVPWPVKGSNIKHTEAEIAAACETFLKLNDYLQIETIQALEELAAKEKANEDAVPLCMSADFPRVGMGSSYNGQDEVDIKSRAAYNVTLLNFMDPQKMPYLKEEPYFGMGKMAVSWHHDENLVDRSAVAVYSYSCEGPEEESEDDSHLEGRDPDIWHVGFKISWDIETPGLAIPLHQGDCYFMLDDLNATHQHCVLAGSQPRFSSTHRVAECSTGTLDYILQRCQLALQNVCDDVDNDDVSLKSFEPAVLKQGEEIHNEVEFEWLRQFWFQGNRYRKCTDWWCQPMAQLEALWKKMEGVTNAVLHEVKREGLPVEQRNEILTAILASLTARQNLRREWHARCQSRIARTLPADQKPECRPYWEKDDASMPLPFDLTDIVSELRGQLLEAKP

[26] = Selectivity ratio of IC50 for ALKBH3 (unknown origin) to IC50 for ALKBH5 (66 to 292 residues) (unknown origin) extracted from Escherichia coli BL21 (DE3) cells by fluorescence polarization assay
[27] = biological target: T1, RNA demethylase ALKBH5; experiment: Potency index, ratio of 2-(((2-nitrophenyl)sulfonyl)carbamoyl)isonicotinic acid IC50 to test compound IC50 for inhibition of ALKBH5 (66 to 292 residues) (unknown origin) extracted from Escherichia coli BL21 (DE3) cells using m6A ssDNA as substrate measured after 1 hrs by fluorescence polarization assay

In the case of `O=Cc1cc(S(=O)(=O)NC(=O)c2cc(C(=O)O)ccn2)c2ccccc2c1O`, the Activity [1] is reported as 22.22%, the Activity [2] is reported as 4.62% and the Kd [3] is reported as 1.14 µM. For the same molecule, the IC50 [4] was 0.58 µM, the ΔTm [5] was less than 1 °C and the TDI [6] was “Active”. The inhibition [7] was “inactive”, the Activity [8] was 2.03% and the Activity [9] was 10.4%. The Activity [10] was “Active”, the IC50 [11] was 1.43 µM and the Activity [12] was “Active”. For the same molecule, the Tm [13] was 49.9 °C, the Activity [14] was 73.67% and the inhibition [15] was “Active”. For the same molecule, the Ratio IC50 [16] was 30, the IC50 [17] was 0.28 µM and the Activity [18] was 26.1%. The inhibition [19] was “Dose-dependent-effect”, the Kd [20] was 1.03 µM and the IC50 [21] was 11.7 µM. For the same molecule, the ΔTm [22] was less than 1 °C, the Activity [23] was 1.2% and the inhibition [24] was “Active”. For the same molecule, the ΔTm [25] was less than 1 °C, the Ratio IC50 [26] was 20 and the Ratio IC50 [27] was 287.
